Measurements taken from publication PMC8619914, “Development of Novel Peptides for the Antimicrobial Combination Therapy against Carbapenem-Resistant Acinetobacter baumannii Infection” (Pharmaceutics, 2021).
≈ marks a conversion by molar mass, not a printed value. Where two headings read alike, the source gives them in different places. Where no end group is shown, it is not given here.

Assays:
CRAB C2 [1] = assay: microbe, parasite or virus in culture; conditions: Acinetobacter baumannii, 16 h, read-out: MIC alone, CRAB C2
Experimental: (§1) The synergistic effects of AMPs and antibiotics were measured using checkerboard assays. Serial dilutions of PapMA-3 and antibiotics were performed from 1 to […] of the MIC. Samples were then cross-mixed and cultured in MH medium with 2 × 10^5 CFU·ml^−^1 bacteria. Results were recorded after 16 h of incubation at 37 °C. The fractional inhibitory concentration index (FICI) was calculated according to the European Committee on Antimicrobial Susceptibility (EUCAST).
(§2) The ability of PapMA-3 to facilitate these antibiotics in penetrating the bacterial membranes of Gram-negative bacteria was investigated.

CRAB C4 [2] = assay: microbe, parasite or virus in culture; conditions: Acinetobacter baumannii, 16 h, read-out: MIC alone, CRAB C4
Experimental: as §1, §2

CRAB C1 [3] = assay: microbe, parasite or virus in culture; conditions: Acinetobacter baumannii, 16 h, read-out: MIC alone, CRAB C1
Experimental: as §1, §2

CRAB C5 [4] = assay: microbe, parasite or virus in culture; conditions: Acinetobacter baumannii, 16 h, read-out: MIC alone, CRAB C5
Experimental: as §1, §2

CRAB C3 [5] = assay: microbe, parasite or virus in culture; conditions: Acinetobacter baumannii, 16 h, read-out: MIC alone, CRAB C3
Experimental: as §1, §2

[6] = system: Gram-negative bacterial strains; assay: organism not typed; conditions: for MIC: read-out: GM (mean MIC of Gram-negative bacterial strains); for GM (mean MIC of Gram-negative bacterial strains): seven Gram-negative strains, 256 assumed for MIC > 128 and 1024 for MIC > 512 μg·mL^−1
Excerpt: (§3) The Gram-negative bacterial strain Escherichia coli (KCTC 1682) and Gram-positive bacterial strain Staphylococcus aureus (KCTC 1621) were purchased from the Korean Collection for Type Cultures (Jeongeup, Korea). Acinetobacter baumannii (KCCM 40203) were purchased from Korea Culture Center of Microorganisms (Seoul, Korea). Additionally, five carbapenem-resistant Acinetobacter baumanii C1–C5 (CRAB C1–C5), which have the OXA-23 gene with carbapenem-resistance were collected from the patients with CRAB bacteremia, who presented symptoms and signs of infection at Korea University Anam Hospital (Seoul, Korea) (IRB registration no. 2020AN0157). The minimum inhibitory concentrations (MIC) of the AMP and antibiotics against the various bacterial strains were assessed using the serial dilution method on Muller–Hinton (MH) media, as described previously. […] Absorbance at 600 nm was measured using a SpectraMAX microplate reader (Molecular Devices, San Jose, CA, USA).
Geometric means (GM) were calculated to compare the relative antimicrobial activities of the analogs against Gram-negative bacteria. […] Next, the antibacterial mechanisms of peptides were investigated.

CRAB C1 biofilm = assay: Biofilm inhibition, crystal violet; format: cell-based, carbapenem-resistant Acinetobacter baumannii; conditions: Acinetobacter baumannii; 32 μg·mL^−1, CRAB C1, compared to the control; read-out: percentage of biofilm inhibition
Experimental: CRAB C1 cells (2 × 10^5 CFU·mL^−^1) were incubated with PapMA-3 and antibiotics in a tissue-culture well plate in MH medium containing 0.2% glucose for 16 h at 37 °C. The cells were stained with 0.1% (w/v) crystal violet in 0.25% (v/v) acetic acid for 1 h at room temperature; the dye complex was dissolved with ethanol. Absorbance at 595 nm was measured using SpectraMAX microplate reader (Molecular Devices) to quantify the biofilm formation.
Biofilms were quantified by staining with crystal violet. (A) Absorbance of crystal violet-stained biofilms with treatment of PapMA-3 and antibiotics at a concentration range of 32 to 512 μg·mL^−1, assessed at 595 nm. […] CRAB C1 without peptides or antibiotics served as the control (red). Statistical analysis was performed using two-way ANOVA with Dunnett’s comparison test. The values are expressed as the mean ± SEM of three independent experiments and are statistically significant at ** p < 0.01 and *** p < 0.001. ns, not significant.

[7] = system: Staphylococcus aureus (KCTC 1621); assay: microbe, parasite or virus in culture; conditions: for MIC: Staphylococcus aureus, KCTC1621, 16 h, read-out: Minimum Inhibitory Concentration, S.aureus; for Minimum Inhibitory Concentration, S.aureus: KCTC 1621, 16 h
Excerpt: as §3
(§4) Measurement of the minimum inhibitory concentrations (MIC) was conducted to determine the effect of the hydrophobicity of each antimicrobial peptide on its antimicrobial activity. MIC was defined as the minimum concentration that killed more than 99% of bacteria; it was measured against two standard Gram-negative bacteria (E. coli and A. baumanii), five clinically isolated CRAB (C1–C5), and one Gram-positive bacteria (S. aureus).

[8] = system: Acinetobacter baumannii (KCCM 40203); assay: microbe, parasite or virus in culture; conditions: for MIC: Acinetobacter baumannii, KCCM40203, 16 h, read-out: Minimum Inhibitory Concentration, A. baumanii; for Minimum Inhibitory Concentration, A. baumanii: KCCM 40203, 16 h
Excerpt: as §3, §4

CRAB C2 [9] = assay: microbe, parasite or virus in culture; conditions: 16 h; for MIC: Acinetobacter baumannii, read-out: Minimum Inhibitory Concentration, CRAB C2; for Minimum Inhibitory Concentration, CRAB C2: MH media, 2 × 10^5 CFU·mL^−1, 37 °C, absorbance 600 nm
Excerpt: as §3, §4

CRAB C4 [10] = assay: microbe, parasite or virus in culture; conditions: 16 h; for MIC: Acinetobacter baumannii, read-out: Minimum Inhibitory Concentration, CRAB C4; for Minimum Inhibitory Concentration, CRAB C4: MH media, 2 × 10^5 CFU·mL^−1, 37 °C, absorbance 600 nm
Excerpt: as §3, §4

CRAB C1 [11] = assay: microbe, parasite or virus in culture; conditions: 16 h; for MIC: Acinetobacter baumannii; for Minimum Inhibitory Concentration, CRAB C1: MH media, 2 × 10^5 CFU·mL^−1, 37 °C, absorbance 600 nm
Excerpt: as §3, §4

CRAB C5 [12] = assay: microbe, parasite or virus in culture; conditions: 16 h; for MIC: Acinetobacter baumannii, read-out: Minimum Inhibitory Concentration, CRAB C5; for Minimum Inhibitory Concentration, CRAB C5: MH media, 2 × 10^5 CFU·mL^−1, 37 °C, absorbance 600 nm
Excerpt: as §3, §4

[13] = system: Escherichia coli (KCTC 1682); assay: microbe, parasite or virus in culture; conditions: for MIC: Escherichia coli, KCTC1682, 16 h, read-out: Minimum Inhibitory Concentration, E. coli; for Minimum Inhibitory Concentration, E. coli: MH media, 2 × 10^5 CFU·mL^−1, 37 °C, 16 h, absorbance 600 nm, MIC kills more than 99% of bacteria
Excerpt: as §3, §4

CRAB C3 [14] = assay: microbe, parasite or virus in culture; conditions: 16 h; for MIC: Acinetobacter baumannii, read-out: Minimum Inhibitory Concentration, CRAB C3; for Minimum Inhibitory Concentration, CRAB C3: MH media, 2 × 10^5 CFU·mL^−1, 37 °C, absorbance 600 nm
Excerpt: as §3, §4

[15] = read-out: Minimum Inhibitory Concentration, CRAB C1

Row | Compound | MIC (CRAB C2 [1]) [µg/mL] | MIC (CRAB C4 [2]) [µg/mL] | MIC (CRAB C1 [3]) [µg/mL] | MIC (CRAB C5 [4]) [µg/mL] | MIC (CRAB C3 [5]) [µg/mL] | MIC [6] [µg/mL] | inhibition at 32 µg/mL (CRAB C1 biofilm) [%] | MIC [7] [µg/mL] | MIC [8] [µg/mL] | MIC (CRAB C2 [9]) [µg/mL] | MIC (CRAB C4 [10]) [µg/mL] | GM (mean MIC of Gram-negative bacterial strains) [6] [µg/mL] | Minimum Inhibitory Concentration, S.aureus [7] [µg/mL] | Minimum Inhibitory Concentration, A. baumanii [8] [µg/mL] | Minimum Inhibitory Concentration, CRAB C2 (CRAB C2 [9]) [µg/mL] | Minimum Inhibitory Concentration, CRAB C4 (CRAB C4 [10]) [µg/mL] | Minimum Inhibitory Concentration, CRAB C1 (CRAB C1 [11]) [µg/mL] | Minimum Inhibitory Concentration, CRAB C5 (CRAB C5 [12]) [µg/mL] | Minimum Inhibitory Concentration, E. coli [13] [µg/mL] | Minimum Inhibitory Concentration, CRAB C3 (CRAB C3 [14]) [µg/mL] | further results
1 | C[C@@H](O)[C@H]1C(=O)N2C(C(=O)O)=C(SCCN=CN)C[C@H]12 [Imipenem] | 64 | 64 | 64 | 64 | 64 | 46 | 88.9 | 1 (≈ 3.34 µM) | 0.25 (≈ 0.835 µM) | 64 (≈ 214 µM) | 64 (≈ 214 µM) | – | – | – | – | – | – | – | – | – | MIC (CRAB C1 [11]; [15]): 64 µg/mL (≈ 214 µM); MIC (CRAB C1 [11]; read-out: Minimum Inhibitory Concentration, CRAB C1, MH Media): 64 µg/mL (≈ 214 µM); MIC (CRAB C5 [12]): 64 µg/mL (≈ 214 µM); MIC [13]: 0.25 µg/mL (≈ 0.835 µM); MIC (CRAB C3 [14]): 64 µg/mL (≈ 214 µM)
2 | CC(=O)NC[C@H]1CN(c2ccc(N3CCOCC3)c(F)c2)C(=O)O1 [Linezolid] | 256 | 512 | 256 | 512 | 256 | 329 | 4.4 | 1 (≈ 2.96 µM) | 256 (≈ 759 µM) | 256 (≈ 759 µM) | 512 (≈ 1520 µM) | – | – | – | – | – | – | – | – | – | MIC (CRAB C1 [11]; [15]): 256 µg/mL (≈ 759 µM); MIC (CRAB C5 [12]): 512 µg/mL (≈ 1520 µM); MIC [13]: 256 µg/mL (≈ 759 µM); MIC (CRAB C3 [14]): 256 µg/mL (≈ 759 µM)
3 | C[C@@H](O)[C@H]1C(=O)N2C(C(=O)O)=C(S[C@@H]3CN[C@H](C(=O)N(C)C)C3)[C@H](C)[C@H]12 [Meropenem] | 64 | 128 | 128 | 64 | 64 | 64 | 79.2 | 1 (≈ 2.61 µM) | 0.25 (≈ 0.652 µM) | 64 (≈ 167 µM) | 128 (≈ 334 µM) | – | – | – | – | – | – | – | – | – | MIC (CRAB C1 [11]; [15]): 128 µg/mL (≈ 334 µM); MIC (CRAB C5 [12]): 64 µg/mL (≈ 167 µM); MIC [13]: 0.25 µg/mL (≈ 0.652 µM); MIC (CRAB C3 [14]): 64 µg/mL (≈ 167 µM)
4 | CO[C@H]1/C=C/O[C@@]2(C)Oc3c(C)c(O)c4c(O)c(c(/C=N/N5CCN(C)CC5)c(O)c4c3C2=O)NC(=O)/C(C)=C\C=C\[C@H](C)[C@H](O)[C@@H](C)[C@@H](O)[C@@H](C)[C@H](OC(C)=O)[C@@H]1C [Rifampin] | 64 | 128 | 128 | 256 | 128 | 101 | 77.5 | 1 (≈ 1.22 µM) | 4 (≈ 4.86 µM) | 64 (≈ 77.8 µM) | 128 (≈ 156 µM) | – | – | – | – | – | – | – | – | – | MIC (CRAB C1 [11]; [15]): 128 µg/mL (≈ 156 µM); MIC (CRAB C5 [12]): 256 µg/mL (≈ 311 µM); MIC [13]: 2 µg/mL (≈ 2.43 µM); MIC (CRAB C3 [14]): 128 µg/mL (≈ 156 µM)
5 | RWKIFKKIPKFLHSAKKA-NH2 [PapMA-2] | – | – | – | – | – | – | – | – | – | – | – | 146 | >128 | 128 | >128 | >128 | 128 | 128 | 64 | 64 | –
6 | RWKIFKKIPKFLHSAKKF-NH2 [PapMA] | – | – | – | – | – | – | – | – | – | – | – | 34 | 64 | 32 | 32 | 64 | 32 | 32 | 32 | 16 | –
7 | RWKIFKKIPKFLHSFKKF-NH2 [PapMA-4] | – | – | – | – | – | – | – | – | – | – | – | 10 | 32 | 8 | 8 | 16 | 8 | 8 | 16 | 8 | –
8 | RWKIFKKIPKFLHSWKKF-NH2 [PapMA-5] | – | – | – | – | – | – | – | – | – | – | – | 18 | 32 | 16 | 16 | 32 | 16 | 16 | 16 | 16 | –
9 | RWKIFKKIPKFLHSWKKW-NH2 [PapMA-6] | – | – | – | – | – | – | – | – | – | – | – | 11 | 32 | 8 | 8 | 16 | 8 | 16 | 16 | 8 | –
